In patent US7868163B2, “Adenyl dinucleotides with antitumour activity and a method of preparing thereof” (Universita' Degli Studi Di Genova, priority 2005, dated 2011):
Like-named read-outs stand apart in the source and are kept apart here.

What was measured:
[1] = system: CFC (colony forming cells); test: CFC colony growth from cord blood mononuclear cells in semi-solid medium; assay type: cell-based, human; conditions: Homo sapiens; 24 hours incubation of cord blood mononuclear cells, colonies counted after 2 weeks; read-out: IC50, inhibition of CFC colony growth
Experimental: Mononuclear cells isolated from cord blood were incubated in the presence of various concentrations of P18 (▴), P24 (▪) and the iso-adenosine units resulting from the enzymatic digestion of P18 (Δ) and P24 (□). After 24 hours, aliquots of cells (1-2×10^4) were seeded in semi-solid medium to allow for colony growth. Results are expressed as percentage of inhibition of colony growth compared with controls, represented by cells incubated with the same dilution of chromatographic buffer as present in the HPLC-purified compounds. The IC50 values were obtained from the logarithmic regression curves (R≧0.97). The results shown in this figure are the mean from at least three different experiments.
Mononuclear cells were isolated from cord blood (CB MNC) by a density gradient, washed by centrifugation and resuspended in complete medium (Mosmann, T. (1983) J. Immunol. Methods 65, 55-63). Cells (10^6/ml) were incubated for 24 hours in complete medium in the presence of different dinucleotides at concentrations comprised between 20 and 0.4 μM. Then, aliquots of cells (1-2×10^4) were seeded in semi-solid medium, supplemented with haemopoietic growth factors (Methocult, Stem Cell Technologies, Vancouver, BC), in order to allow colonies to develop. After 2 weeks in culture, the colonies which were grown were microscopically identified according to standard criteria (CFU-E, CFU-GM and CFU-GEM) and counted: each colony identifies a colony forming cell (CFC).

Recombinant CD38 = test: Hydrolysis by recombinant CD38
Experimental: (§1) ADP-ribosyl cyclases from lower and higher Metazoa were incubated in the presence of 0.1 mM cADPR and 1 mM adenine at pH 7.4 in 10 mM Tris-HCl (A, B and C) or in PBS-glucose (D) at 22° C. (A and B) or at 37° C. (C and D) for 4 hours. Aliquots of the various incubations were deproteinised with TCA (trichloroacetic acid) and subjected to HPLC (analytical phosphate). Chromatograms representative of each incubation are shown. A. A. polypoides; B. A. californica; C. Human CD38 (recombinant); D. Human HeLa cells transfected with sense and antisense human CD38 (dashed chromatogram).
(§2) In table 1, the absolute values of the peak-forming and -hydrolysing activities are compared with the cADPR-forming and -hydrolysing activities for each enzyme. The activities are expressed as nmol/min/mg.

[2] = system: HeLa-CD38^+ (whole cells); test: Hydrolysis by CD38+ HeLa whole cells
Experimental: as §1, §2

[3] = system: A. polypoides ADP-ribosyl cyclase; test: Hydrolysis by purified Axinella polypoides ADP-ribosyl cyclase
Experimental: as §1, §2

[4] = target: T1, A. californica ADP-ribosyl cyclase (Aplysia californica, UniProt P29241); test: Hydrolysis by Aplysia californica ADP-ribosyl cyclase; assay type: in vitro ADME; conditions: P18 to adenine and ADPR
T1 construct: The cyclase purified from the mollusc Aplysia californica was purchased from Sigma; purchased Sigma; host or cells: purified from the mollusc
T1 sequence (P29241 25-282): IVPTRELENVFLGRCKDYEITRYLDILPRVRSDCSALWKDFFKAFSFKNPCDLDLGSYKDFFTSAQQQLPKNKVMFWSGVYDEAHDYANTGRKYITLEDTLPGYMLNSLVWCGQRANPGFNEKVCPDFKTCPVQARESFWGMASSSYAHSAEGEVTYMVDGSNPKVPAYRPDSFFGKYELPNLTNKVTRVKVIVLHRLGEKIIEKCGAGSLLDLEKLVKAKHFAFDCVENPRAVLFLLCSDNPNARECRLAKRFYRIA
Experimental: (A and B) or at 37° C. (C and D) for 4 hours. […] Chromatograms representative of each incubation are shown. A. A. polypoides; B. A. californica; C.
The activities are expressed as nmol/min/mg.

[5] = Storage stability of purified lyophilised peaks; conditions: stored at −20° C., several months (approx. 6)
Experimental: The cyclase purified from A. polypoides was used for the production of the dinucleotides for structural and functional studies. In a total volume of 0.4 ml of 10 mM Tris-HCl, pH 7.0, 0.05 mg of purified cyclase were incubated with 1 mM cADPR (or NAD^+), 5 mM adenine and 2 mM MgCl2 at room temperature. cADPR or NAD^+ was added to the reaction mixture every 6 hours, while every 24 hours fresh cyclase was added and an aliquot of the incubation was deproteinised with TCA (5% final concentration) and analysed by HPLC (analytical phosphate) to monitor dinucleotide production. After 3-5 days, the resulting incubation was extracted with TCA and 250 μl aliquots were injected into an HPLC column (preparative phosphate). The P18, P24 and P31 peaks were collected, lyophilised in a RotoVapor, re-dissolved in deionised water and injected into an HPLC column (preparative formate). […] The purified peaks produced by Axinella cyclase were used in in vitro experiments on the various cell types described hereinafter, for the enzymatic production of mononucleotides and nucleosides (see below), as internal and external HPLC standards to identify the dinucleotides in cell extracts, and for detecting the absorption spectra stored in the liquid chromatograph library as standards.

CD38^− cells = test: Uptake of extracellularly added dinucleotides in CD38- cells; assay type: in vitro ADME, human; conditions: 15 μM added extracellularly

For `Nc1c2ncnc-2ncn1[C@@H]1O[C@H](CO)[C@@H](O)[C@H]1O` [iso-adenosine from P18, 1-β-D-ribofuranosyladenine], the IC50 [1] was 37 µM.
In the case of `Nc1ncn([C@@H]2O[C@H](CO)[C@@H](O)[C@H]2O)c2ncnc1-2` [iso-adenosine from P24, 3-β-ribofuranosyladenine], the IC50 [1] is reported as 5 µM.
Compound `N=c1c2ncn3c2ncn1[C@@H]1O[C@H](COP(=O)(O)OP(=O)(O)OC[C@H]2O[C@@H]3[C@H](O)[C@@H]2O)[C@@H](O)[C@H]1O` [cADPR, cyclic ADP-ribose, reference compound] has a hydrolysis activity (Recombinant CD38) of 308 nmol/min/mg, a hydrolysis activity [2] of 0.49 nmol/min/mg and a hydrolysis activity [3] of 170 nmol/min/mg. The hydrolysis activity [4] was 770 nmol/min/mg.
In the case of `Nc1ncnc2c1ncn2[C@@H]1O[C@H](CO[P@](=O)(O)O[P@](=O)(O)OC[C@H]2O[C@@H](n3cnc4c(N)ncnc43)[C@H](O)[C@@H]2O)[C@@H](O)[C@H]1O` [P31, diadenosine diphosphate, reference compound], the hydrolysis activity ([2]; HeLa-CD38^+ whole cells, P18 and P24 to adenine and ADPR) is reported as 0.15 nmol/min/mg, the degradation on storage [5] is reported as “no dinucleotide degradation was observed” and the “rate of increase of intracellular concentration (uptake)” value (CD38^− cells) is reported as “approx. 2.4 pmol/min/mg”.
